According to patent US20090060928A1, “Topical Toll Like Receptor Ligands as Vaccine Adjuvants” (priority 2006, published 2009):

How the values were obtained:
[1] = Local toxicity of the adjuvant; format: in vivo; conditions: adjuvant with sc OVA immunization
anti-OVA IgG antibodies = test: Anti-OVA antibodies in serum by ELISA after sc OVA immunization with adjuvant; format: in vivo, C57BI/6 mice
Description: Fig. A: Groups of mice were immunized to OVA alone or followed by topical application of imiquimod to the site of immunization 3×/wk. or to OVA in ILK-2 liposomes. One week following 4 weekly immunizations, sera was collected and tested for anti-OVA IgG antibodies by ELISA. Anti-OVA IgG responses was greater in mice treated with imiquimod than in those immunized to OVA alone. It was as strong as that induced by IL-2 liposomes as the adjuvant. Fig. B: One week following 4 weekly immunizations, IgG1, IgG2a, IgG2b, and IgG3 anti-OVA antibodies was measured in these groups by ELISA, using subclass specific antibodies as probes.
(§1) FIG. 3A: Groups of mice were immunized to OVA alone or followed by topical application of imiquimod to the site of immunization 1×/wk. or to a site distal to the immunization. One week following 4 weekly immunizations, sera was collected and tested for anti-OVA IgG subclass antibodies by ELISA. Anti-OVA IgG responses was greater in mice treated with imiquimod both locally and distally than in those immunized to OVA alone. FIG. 3B: Triplicate mice were sacrificed 1 week after 4 immunizations and cellular immune responses to OVA-expressing target E.G7-OVA cells determined by ELIspot assay
(§2) In more detail, groups of 10 C57BI/6 mice were immunized sc weekly×4 to 0.1 mg of ovalbumin (OVA). Some groups were in addition treated with 5% imiquimod cream applied topically to the immunization site once or 3×/week. Control groups were immunized to PBS, to OVA encapsulated into IL-2 liposomes (which we have previously shown is one of the strongest adjvuanrts available), or to irradiated E.G7-OVA cells (a powerful stimulator of anti-OVA T-cell responses). Serum was collected from each mouse at baseline and following the 4th immunization, pooled by immunization group, and assayed for antibodies to OVA by ELISA.
In these experiments, groups of […] mice were immunized sc weekly×4 to 0.1 mg of ovalbumin (OVA) given in 0.1 ml of PBS injected in the lower abdominal region. One group of mice was also treated with 5% imiquimod applied topically to the skin at a site distal (in the nape of the neck) to the immunization site 1×/week.

E.G7-OVA cells = test: ELISPOT (gamma-interferon release) of spleen cells for T-cell response to OVA positive target cells; format: in vivo, C57BI/6 mice; conditions: for cellular response to OVA by ELISPOT: FIG. 3B; for T-cell (cellular) response by ELISPOT: FIG. 2A
Description: FIG. 1A: Mice were immunized to OVA with or without topical application of imiquimod treatment 1× or 3×/wk following each immunization. Spleen cells were collected from each group 1 week following 4 immunizations, and tested by ELISPOT (based on gamma-interferon release) for T-cell response to OVA positive target cells (E.G7-OVA). FIG. 2B Mice were immunized to OVA with topical application of imiquimod 3×/week or with OVA encapsulated into IL-2 liposomes. Imiquimod boosted T-cell responses more strongly than IL-2 liposomes.
as §1, §2
Imiquimod boosted in particular Ig2a and IgG2b responses which were almost undetectable in mice immunized to OVA alone (see FIG. 1 B). This is consistent with the known capacity of this agent to preferentially boost Th1 responses. […] No T-cell responses were detectable in mice immunized similarly to OVA alone.
By contrast, no significant T-cell responses above PBS controls were detectable in mice immunized similarly to OVA alone. We have not studied the adjuvant activity of other TLR receptor ligands such as resiquimod and CpG ODN applied topically away from the immunization site. […] Thus, it is reasonable to expect that all of these will also retain adjuvant activity when applied topically directly over, or away, from the immunization site. Because their specific mechanism of action differs from that of imiquimod, they may have stronger adjuvant activity or may be better able to enhance specific type of immune responses than imiquimod. Combinations of TLR ligands may be able to enhance stronger or broader type of immune response than any one individual TLR ligand alone. This invention is intended to cover these different possibilities.

OVA positive tumor cells = test: Vaccine-induced tumor protective immunity against lethal challenge; format: in vivo, mice; conditions: 5% cream topically over site of sc OVA immunization
Description: Importantly, the potency of imiquimod was as great as that of the strongest adjuvant we have studied to date in mice but with less local toxicity.

[2] = topical imiquimod at immunization site, vs OVA only, FIG. 1B

Compound: CC(C)Cn1cnc2c(N)nc3ccccc3c21 [imiquimod]
- local toxicity [1]: no toxicity at all
- overall IgG anti-OVA antibody response (anti-OVA IgG antibodies; OVA 0.1 mg sc weekly x4 + topical imiquimod at immunization site 3x/wk, vs OVA alone, FIG. 1A): considerably greater
- IgG2a titer, times stronger than OVA alone (anti-OVA IgG antibodies; distal imiquimod treatment): 25 times
- IgG2b titer, stronger than OVA alone (anti-OVA IgG antibodies; distal imiquimod treatment): 125
- IgG2a titer, times stronger than OVA alone (anti-OVA IgG antibodies; local imiquimod treatment): 125 times
- IgG2b titer, stronger than OVA alone (anti-OVA IgG antibodies; local imiquimod treatment): 125
- IgG1 anti-OVA antibody response (anti-OVA IgG antibodies; [2]): reduced
- IgG2a anti-OVA antibody response (anti-OVA IgG antibodies; [2]): markedly boosted
- IgG2b anti-OVA antibody response (anti-OVA IgG antibodies; [2]): markedly boosted
- anti-OVA IgG subclass response (anti-OVA IgG antibodies; topical imiquimod both local and distal to vaccine injection site, vs OVA alone, FIG. 3A): considerably greater
- cellular response to OVA by ELISPOT (E.G7-OVA cells; distal application of imiquimod): strong cellular responses
- T-cell (cellular) response by ELISPOT (E.G7-OVA cells; imiquimod applied to immunization site 1x/wk following each immunization): slight response
- T-cell (cellular) response by ELISPOT (E.G7-OVA cells; imiquimod applied to immunization site 3x/week): very strong response
- cellular response to OVA by ELISPOT (E.G7-OVA cells; local application of imiquimod): strong cellular responses
- T-cell response compared with IL-2 liposomes (E.G7-OVA cells; topical imiquimod 3x/week vs OVA in IL-2 liposomes, FIG. 2B): more potent stimulator of T-cell responses than IL-2 liposomes
- vaccine-induced tumor protective immunity (OVA positive tumor cells): markedly increased
